Consider 25 compounds from ChEMBL document CHEMBL3627634, “Synthesis of novel benzohydrazone-oxadiazole hybrids as β-glucuronidase inhibitors and molecular modeling studies” (Bioorg Med Chem, 2015).

For one assay, the target named is T1, Beta-glucuronidase (Bos taurus, UniProt A3KMY8).
T1 sequence (A3KMY8 whole entry): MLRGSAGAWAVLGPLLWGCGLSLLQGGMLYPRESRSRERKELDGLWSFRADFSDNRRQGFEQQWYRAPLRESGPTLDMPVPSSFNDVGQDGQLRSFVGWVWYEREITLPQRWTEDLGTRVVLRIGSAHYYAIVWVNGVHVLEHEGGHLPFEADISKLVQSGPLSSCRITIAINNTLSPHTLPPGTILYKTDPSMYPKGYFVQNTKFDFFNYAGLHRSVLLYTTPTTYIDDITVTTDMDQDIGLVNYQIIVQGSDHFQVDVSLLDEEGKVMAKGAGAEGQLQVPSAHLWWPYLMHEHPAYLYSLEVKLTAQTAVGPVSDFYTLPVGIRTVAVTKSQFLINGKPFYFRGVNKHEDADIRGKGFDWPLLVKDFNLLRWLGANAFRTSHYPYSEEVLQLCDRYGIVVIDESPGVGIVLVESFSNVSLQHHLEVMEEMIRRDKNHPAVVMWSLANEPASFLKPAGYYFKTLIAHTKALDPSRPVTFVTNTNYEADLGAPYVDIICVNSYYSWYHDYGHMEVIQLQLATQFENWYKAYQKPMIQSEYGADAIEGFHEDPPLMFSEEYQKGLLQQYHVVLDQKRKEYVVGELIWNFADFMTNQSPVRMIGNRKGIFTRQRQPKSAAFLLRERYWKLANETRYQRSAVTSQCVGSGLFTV
The assay can be described thus: Inhibition of bovine liver beta-glucuronidase using p-nitrophenyl-beta-D-glucuronide as substrate assessed as p-nitrophenol formation after 30 mins by multiplate reader analysis.
Conditions: not given; call rule not given here
In general, IC50 refers to the midpoint of a concentration-inhibition curve. As to `Cc1ccccc1/C=N/NC(=O)c1ccc(-c2nnc(-c3ccccc3O)o2)cc1`, the IC50 result is “Not Active”.

In the case of `O=C(N/N=C/c1ccccc1[N+](=O)[O-])c1ccc(-c2nnc(-c3ccccc3O)o2)cc1`, the half-inhibitory concentration (IC50) entry is “Not Active”. With `O=C(N/N=C/c1ccc(F)cc1)c1ccc(-c2nnc(-c3ccccc3O)o2)cc1`, the IC50 result is “Not Active”. In the case of `O=C(N/N=C/c1cccnc1)c1ccc(-c2nnc(-c3ccccc3O)o2)cc1`, the IC50 entry is “Not Active”. The same measure, in the same setting: the entry for `O=C(N/N=C/c1ccncc1)c1ccc(-c2nnc(-c3ccccc3O)o2)cc1` is “Not Active”; for `Cc1cccc(/C=N/NC(=O)c2ccc(-c3nnc(-c4ccccc4O)o3)cc2)c1` it is “Not Active”; for `O=C(N/N=C/c1cccc(Cl)c1)c1ccc(-c2nnc(-c3ccccc3O)o2)cc1` it is “Not Active”. Turning to `COc1ccccc1/C=N/NC(=O)c1ccc(-c2nnc(-c3ccccc3O)o2)cc1`, the IC50 entry was “Not Active”. For the compound `Cc1ccc(/C=N/NC(=O)c2ccc(-c3nnc(-c4ccccc4O)o3)cc2)cc1`, the 50% inhibitory concentration (IC50) result was “Not Active”. As for `O=C(N/N=C/c1ccccc1Cl)c1ccc(-c2nnc(-c3ccccc3O)o2)cc1`, the IC50 entry is “Not Active”. Still for that read-out and setting: to `O=C(N/N=C/c1cccc(F)c1)c1ccc(-c2nnc(-c3ccccc3O)o2)cc1` belongs “Not Active”.

Still in this assay, the particulars now being: read-out: IC50.
For `COc1ccc(O)c(/C=N/NC(=O)c2ccc(-c3nnc(-c4ccccc4O)o3)cc2)c1`, the IC50 came out at 88.1 µM. Consider `O=C(N/N=C/c1ccc(O)c(O)c1)c1ccc(-c2nnc(-c3ccccc3O)o2)cc1`, for which the half-maximal inhibitory concentration (IC50) was 29.2 µM. Turning to `O=C(N/N=C/c1ccccc1F)c1ccc(-c2nnc(-c3ccccc3O)o2)cc1`, the concentration for half-maximal inhibition (IC50) stood at 108 µM.

Take `O=C(N/N=C/c1cccc(O)c1)c1ccc(-c2nnc(-c3ccccc3O)o2)cc1`: the IC50 came to 34.5 µM. On the same count and under the same terms, the figure for `O=C(N/N=C/c1ccc([N+](=O)[O-])cc1)c1ccc(-c2nnc(-c3ccccc3O)o2)cc1` is 44.2 µM; for `O=C(N/N=C/c1c(O)cc(O)cc1O)c1ccc(-c2nnc(-c3ccccc3O)o2)cc1` it is 82.2 µM. As for `O=C(N/N=C/c1cc(O)c(O)cc1O)c1ccc(-c2nnc(-c3ccccc3O)o2)cc1`, the half-inhibitory concentration (IC50) worked out at 21.1 µM. The same measure, in the same setting: the figure for `O=C(N/N=C/c1cc(O)ccc1O)c1ccc(-c2nnc(-c3ccccc3O)o2)cc1` is 15.1 µM; for `O=C(N/N=C/c1ccccn1)c1ccc(-c2nnc(-c3ccccc3O)o2)cc1` it is 42.3 µM; for `O=C(N/N=C/c1cccc([N+](=O)[O-])c1)c1ccc(-c2nnc(-c3ccccc3O)o2)cc1` it is 64.1 µM.

Turning to `O=C(N/N=C/c1ccc(Cl)cc1)c1ccc(-c2nnc(-c3ccccc3O)o2)cc1`, the half-maximal inhibitory concentration (IC50) was 86.1 µM. On the same count and under the same terms, the figure for `COc1ccc(/C=N/NC(=O)c2ccc(-c3nnc(-c4ccccc4O)o3)cc2)cc1O` is 7.14 µM. For `O=C(N/N=C/c1ccccc1O)c1ccc(-c2nnc(-c3ccccc3O)o2)cc1`, the IC50 turned out to be 91.4 µM. For `O=C(N/N=C/c1ccc(O)cc1)c1ccc(-c2nnc(-c3ccccc3O)o2)cc1`, the 50% inhibitory concentration (IC50) was determined as 18.5 µM.
